Data as given in patent US20030176499A1, “Use of fibrates for the preparation of a medicament useful in the treatment of congestive heart failure” (priority 2003, published 2003).

Assays:
[1] = tested on: male Wistar rats with left ventricular hypertrophy induced by constriction of the abdominal aorta; test: Evaluation of cardiac function in rats with aortic constriction (left ventricular catheter); type: in vivo, rat; conditions: anaesthetised rats with aortic constriction, clofibrate 0.2% in the feed for 12 weeks, mean ± standard deviation
Description: (§1) Animal-housed male Wistar rats weighing 100-120 g were used: 5 per cage (cage size: 425 mm×266 mm×180 mm with a sawdust litter) at a temperature of […] and 50±15% humidity with a 12/12 h light/darkness cycle and with 15-20 air changes/hour. The animals were fed with LP ALTROMIN (REIPER) feed and spring water ad libitum
(§2) Left ventricular hypertrophy was induced in rats anaesthetised with Nembutal sodium, by means of constriction of the abdominal aorta with a clip (Ø0.8 mm) placed in the abdominal aorta between the diaphragm and the renal branches; one group of animals, which was then used as a control group, underwent the same operation but was not submitted to constriction of the aorta (shams).
(§3) The animals were thus randomly assigned to the following groups:
(§4) CLO: operated on with aortic constriction and treated for 12 weeks, from the day after the operation with clofibrate 0.2% in the feed (60-100 mg/kg/day (n=11).
At the end of treatment, cardiac function was evaluated, in the animals anaesthetised with Nembutal sodium, by means of a polyethylene catheter inserted in the left ventricle via the carotid and connected up to a pressure transducer (Statham p23 XL) and to an amplifier (Biomedica Mangoni bm 61).
The parameters recorded were: heart rate, ventricular systolic and end-diastolic pressure, and the positive and negative derivatives of ventricular pressure, which were recorded on a personal computer by means of a special data acquisition system (IDAS). The measurements were taken for a period of 30 minutes.
The data were expressed as mean ± standard deviation and were compared using Student's t-test for independent data. Differences with P<0.05 were regarded as statistically significant.

[2] = tested on: male Wistar rats with left ventricular hypertrophy induced by constriction of the abdominal aorta; conditions: rats with aortic constriction, clofibrate 0.2% in the feed for 12 weeks, mean ± standard deviation
Description: as §1, §2, §3, §4
At the end of the experiments the animals were sacrificed by means of a lethal dose of Nembutal, the abdominal cavity was opened, the organs were exteriorised in order to verify correct positioning of the aortic clip, and the heart, lungs and liver were then removed and carefully dried and weighed after macroscopic observation of any abnormalities.
The data were expressed as mean ± standard deviation and were compared using Student's t-test for independent data. […]

**Q.** For CCOC(=O)C(C)(C)Oc1ccc(Cl)cc1 [CLO, clofibrate], which “DP/dt max = positive derivative of ventricular pressure” value [1] is on record?
**A.** 16108 ± 1115eC mm Hg/sec

**Q.** And the “DP/dt min = negative derivative of ventricular pressure” value [1]?
**A.** 9556 ± 560bA mm Hg/sec

**Q.** And the DP/dtmax/LVSP (positive derivative normalised for ventricular systolic pressure) [1]?
**A.** 77 ± 5 s⁻¹

**Q.** And the “HR = heart rate” value [1]?
**A.** 401 ± 16 b/min

**Q.** What about the “LDevP/HW (developed pressure normalised for ventricular weight)” value [1] of the same compound?
**A.** 13.3 ± 1.5aC

**Q.** What about the LVEDP = left ventricular end-diastolic pressure [1] of the same compound?
**A.** 7.2 ± 1.2 mmHg

**Q.** And the “LVSP = left ventricular systolic pressure” value [1]?
**A.** 206 ± 5aB mm Hg

**Q.** And the LdevP developed pressure [1]?
**A.** 207 ± 7cA mm Hg

**Q.** What about the “VW/BW (ventricular weight (mg) / body weight (g))” value [2] of the same compound?
**A.** 3.33 ± 0.20a
